According to ChEMBL document CHEMBL4613253, “Effective Application of Metabolite Profiling in Drug Design and Discovery” (J Med Chem, 2020):
Each block holds one compound with its values, some of them ahead of it.

Experiments:
[1] = Drug metabolism in human liver microsomes assessed as peak area for GSH-EE-quinone conjugate formation at 10 uM measured after 60 mins in presence of NADPH by LC-MS/MS analysis; assay type: ADME, Microsome; details: 1 h
[2] = molecular target: cGMP-dependent 3',5'-cyclic phosphodiesterase (Homo sapiens, UniProt O00408); assay: Inhibition of PDE2 (unknown origin)
Chain of cGMP-dependent 3',5'-cyclic phosphodiesterase (O00408 whole entry): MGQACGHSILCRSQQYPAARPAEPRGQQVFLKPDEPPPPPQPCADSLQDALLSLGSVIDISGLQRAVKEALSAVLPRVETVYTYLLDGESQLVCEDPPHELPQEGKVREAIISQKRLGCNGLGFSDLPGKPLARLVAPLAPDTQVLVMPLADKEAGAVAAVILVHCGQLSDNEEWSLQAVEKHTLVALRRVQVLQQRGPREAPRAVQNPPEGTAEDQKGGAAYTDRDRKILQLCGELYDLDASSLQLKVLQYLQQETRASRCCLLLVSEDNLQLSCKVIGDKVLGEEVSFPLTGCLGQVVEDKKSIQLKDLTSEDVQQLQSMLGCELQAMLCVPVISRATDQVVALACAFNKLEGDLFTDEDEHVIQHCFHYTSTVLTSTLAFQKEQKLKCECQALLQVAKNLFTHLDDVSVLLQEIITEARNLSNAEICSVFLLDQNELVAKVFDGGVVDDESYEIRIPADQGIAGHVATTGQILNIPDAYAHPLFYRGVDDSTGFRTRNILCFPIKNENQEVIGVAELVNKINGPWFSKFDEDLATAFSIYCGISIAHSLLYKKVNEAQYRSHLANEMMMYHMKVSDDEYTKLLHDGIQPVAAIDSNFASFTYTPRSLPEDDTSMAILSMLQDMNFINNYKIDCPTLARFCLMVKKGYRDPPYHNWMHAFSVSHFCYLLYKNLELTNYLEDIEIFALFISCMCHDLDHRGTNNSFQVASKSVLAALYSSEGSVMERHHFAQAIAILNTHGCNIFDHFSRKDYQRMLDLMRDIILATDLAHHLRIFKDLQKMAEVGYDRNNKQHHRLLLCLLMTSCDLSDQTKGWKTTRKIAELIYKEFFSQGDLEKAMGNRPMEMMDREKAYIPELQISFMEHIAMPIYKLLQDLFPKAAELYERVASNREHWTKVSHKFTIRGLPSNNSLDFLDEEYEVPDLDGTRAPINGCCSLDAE

[3] = AUC(0 to infinity) in human carrying CYP3A5*3/*3 allele at 300 mg, po measured up to 32 hrs; assay type: ADME, organism-based; set-up: dose 300 mg, route oral, time infinity; details: in vivo
[4] = AUC(0 to infinity) in human carrying CYP3A5*1/*3 allele at 300 mg, po measured up to 32 hrs; assay type: ADME, organism-based; set-up: dose 300 mg, route oral, time infinity; details: in vivo
[5] = AUC(0 to infinity) in human carrying CYP3A5*1/*1 allele at 300 mg, po measured up to 32 hrs; assay type: ADME, organism-based; set-up: dose 300 mg, route oral, time infinity; details: in vivo
[6] = Half life in rat liver microsomes at 1 uM measured up to 60 mins by LC-MS/MS analysis; assay type: ADME, Microsome
[7] = Half life in dog liver microsomes at 1 uM measured up to 60 mins by LC-MS/MS analysis; assay type: ADME, Canis lupus familiaris, Microsome
[8] = Half life in human liver microsomes at 1 uM measured up to 60 mins by LC-MS/MS analysis; assay type: ADME, Microsome
[9] = Plasma clearance in Wistar-Han rat at 1 mg/kg, iv measured up to 24 hrs by LC-MS/MS analysis; assay type: ADME, organism-based
[10] = Plasma clearance in Beagle dog at 1 mg/kg, iv measured up to 24 hrs by LC-MS/MS analysis; assay type: ADME, organism-based, Canis lupus familiaris
[11] = Half life in human plasma at 1 uM incubated for 0 to 120 mins by LC-MS/MS method; assay type: ADME, cell-free
[12] = Half life in guinea pig plasma at 1 uM incubated for 0 to 120 mins by LC-MS/MS method; assay type: ADME, cell-free, Cavia porcellus
[13] = Half life in rat plasma at 1 uM incubated for 0 to 120 mins by LC-MS/MS method; assay type: ADME, cell-free
[14] = molecular target: T1, Glucose-dependent insulinotropic receptor (Homo sapiens, UniProt Q8TDV5); assay: Agonist activity at human GPR119 expressed in HEK293 cells preincubated for 30 mins followed by d2 cAMP addition and measured after 60 mins by HTRF assay; assay type: functional, cell-based
T1 sequence (Q8TDV5 whole entry): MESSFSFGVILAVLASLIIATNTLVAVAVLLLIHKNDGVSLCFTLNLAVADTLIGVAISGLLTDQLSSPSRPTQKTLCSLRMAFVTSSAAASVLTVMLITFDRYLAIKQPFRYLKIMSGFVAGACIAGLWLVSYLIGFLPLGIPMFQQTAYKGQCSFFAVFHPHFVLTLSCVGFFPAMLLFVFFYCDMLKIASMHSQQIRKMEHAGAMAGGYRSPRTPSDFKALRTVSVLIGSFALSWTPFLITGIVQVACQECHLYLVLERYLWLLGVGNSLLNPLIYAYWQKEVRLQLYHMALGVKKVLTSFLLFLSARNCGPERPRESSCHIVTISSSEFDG

[15] = Protein binding in po or iv dosed rat plasma assessed as free fraction; assay type: ADME, organism-based
[16] = Plasma clearance in po or iv dosed rat plasma; assay type: ADME, organism-based
[17] = Volume of distribution at steady state in po or iv dosed rat; assay type: ADME, organism-based; details: in vivo, read-out: Vdss
[18] = Elimination half life in po or iv dosed rat; assay type: ADME, organism-based; details: in vivo, read-out: beta t1/2 (converted)
[19] = Oral bioavailability in rat; assay type: ADME, organism-based; details: in vivo
[20] = Half life in dog plasma at 1 uM incubated for 0 to 120 mins by LC-MS/MS method; assay type: ADME, cell-free, Canis lupus familiaris
[21] = Half life in monkey plasma at 1 uM incubated for 0 to 120 mins by LC-MS/MS method; assay type: ADME, cell-free, Macaca mulatta; details: rhesus monkey

Structure (SMILES): C[C@H](Cc1ccc(F)c(F)c1)n1c(-c2ncccc2O)nc2ccnc(C(F)(F)F)c2c1=O
Activity [1]: 3000

Structure (SMILES): CCc1ccc(-c2c(-c3nn(C)c4ncnc(N5CC(O)C5)c34)cnn2C)cc1
IC50 [2]: 10 nM

Structure (SMILES): Cc1nnc(C(C)C)n1[C@@H]1C[C@H]2CC[C@@H](C1)N2CC[C@H](NC(=O)C1CCC(F)(F)CC1)c1ccccc1 [MARAVIROC]
AUC(0-inf) [3]: 2100 ng·h/mL | AUC(0-inf) [4]: 1760 ng·h/mL | AUC(0-inf) [5]: 1240 ng·h/mL

Structure (SMILES): COc1ccc(-c2cc(=O)[nH]c(=S)n2CCO)c(OC)c1
half-life at 1 µM [6]: 8.6 min | half-life at 1 µM [7]: 0.187 h | half-life at 1 µM [8]: > 2 h | clearance [9]: 73 mL/min/kg | clearance [10]: 12 mL/min/kg

Structure (SMILES): C[C@H](Cc1ccccc1)n1c(-c2ccccc2O)nc2ccnc(C(F)(F)F)c2c1=O
Activity [1]: 166810

Now from value to compound:

half-life at 1 µM [11]: > 6.17 h | half-life at 1 µM [12]: > 6.17 h | half-life at 1 µM [13]: > 6.17 h | EC50 [14]: 1.7 nM | fraction unbound [15]: 0.03 | clearance [16]: 13.4 mL/min/kg | Vd [17]: 3 L/kg | half-life [18]: 2.6 h | bioavailability [19]: 70%
Structure (SMILES): Cc1cc(-c2ccc(N3CCC(c4nc(C(C)C)no4)CC3)nc2)c(C#N)cc1C#N

IC50 [2]: 42 nM
Structure (SMILES): CC(O)c1ccc(-c2c(-c3nn(C)c4ncnc(N5CCC5)c34)cnn2C)cc1 (centres undefined)

half-life at 1 µM [11]: > 6.17 h | half-life at 1 µM [20]: > 6.17 h | half-life at 1 µM [21]: > 6.17 h
Structure (SMILES): CC(C)OC(=O)N1CCN(c2ncc(-c3ccc4nccnc4c3)cc2C#N)CC1
